What follows are compounds tested against T1, human heart chymase (Homo sapiens, UniProt P23946) (assay: biochemical). Details: Chymase inhibitive activity (IC50), Ang I substrate, 37° C., 30 min, pH 7.5.
T1 sequence (P23946 22-247): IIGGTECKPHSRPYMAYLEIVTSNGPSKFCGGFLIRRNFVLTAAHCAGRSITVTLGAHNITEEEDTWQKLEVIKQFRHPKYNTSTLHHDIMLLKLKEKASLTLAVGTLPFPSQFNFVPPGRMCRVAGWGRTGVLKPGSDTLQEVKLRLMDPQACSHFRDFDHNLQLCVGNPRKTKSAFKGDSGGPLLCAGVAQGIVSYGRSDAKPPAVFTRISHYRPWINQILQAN
Method: That is, to 10 μl of a 20 mM trisphosphate buffer (pH 7.5) containing 2MKCl were added 10 μl of purified chymase and 5 μl of a dimethylsulfoxide (hereinafter referred to as DMSO) solution of the test sample. The mixture was preincubated at 37° C. for 10 minutes, then 25 μl of a 1 mM Ang I solution was added and the mixture preincubated at 37° C. for 30 minutes. Next, 50 μl of 30% acetic acid was added to stop the enzymatic reaction. At the same time, a blind test was performed by adding, instead of the test sample solution, 5 μl of DMSO and performing the same reaction.
The reacted solution was subjected to high performance liquid chromatography using Develosil ODS-5 (made by Nomura Kagaku, .phi.4.6 mm×150 mm) and developed at a flow rate of 2.0 ml/min in 0.05% TFA by a straight concentration gradient raising the acetonitrile from 0% to 60% over 10 minutes. This was monitored by the absorbance at 210 nm and the peaks identified by comparison with standard samples of Ang I and Ang II. The peak areas were measured by an integrating meter to quantitatively analyze the Ang I and Ang II and calculate the chymase activity.
O=C(O)C[n+]1cccc(NC(=O)Cn2c(=O)n(S(=O)(=O)c3ccc(Cl)cc3)c(=O)c3ccc(Cl)cc32)c1 [Example 84, 3-{[7-chloro-3-(4-chlorobenzenesulfonyl)-2,4(1H,3H)-quinazolinedion-1-yl]acetylamino}-N-carboxymethylpyridinium bromide] was tested, and the IC50 was 43 nM. With O=C(Cn1c(=O)n(S(=O)(=O)c2ccc(Cl)cc2)c(=O)c2ccc(Cl)cc21)Nc1ccncn1 [Example 85, [7-chloro-3-(4-chlorobenzenesulfonyl)-2,4(1H,3H)-quinazolinedion-1-yl]-N-(4-pyrimidinyl)acetamide] the IC50 was 190 nM. For CC[n+]1cccc(NC(=O)Cn2c(=O)n(S(=O)(=O)c3ccc(OC)cc3)c(=O)c3ccc(Cl)cc32)c1 [Example 90], the IC50 was 130 nM. Work on O=C(Cn1c(=O)n(S(=O)(=O)c2ccc(Cl)cc2)c(=O)c2ccc(Cl)cc21)Nc1cccc2ncccc12 [Example 91, [7-chloro-3-(4-chlorobenzenesulfonyl)-2,4(1H,3H)-quinazolinedion-1-yl]-N-(5-quinolyl)acetamide] yielded an IC50 of 180 nM. With O=C(Cn1c(=O)n(S(=O)(=O)c2ccc(Cl)cc2)c(=O)c2ccc(Cl)cc21)Nc1ccc(N2CCNCC2)cc1 [Example 93, [7-chloro-3-(4-chlorobenzenesulfonyl)-2,4(1H,3H)-quinazolinedion-1-yl]-N-(4-piperazin-1-yl)acetamide] the IC50 was 390 nM. Cc1ccc(S(=O)(=O)n2c(=O)c3ccc(Cl)cc3n(CC(=O)Nc3cccnc3)c2=O)cc1 [Example 94, [7-chloro-3-(4-methylbenzenesulfonyl)-2,4(1H,3H)-quinazolinedion-1-yl]-N-(3-pyridyl)acetamide] gave an IC50 of 170 nM. Compound CC[n+]1cccc(NC(=O)Cn2c(=O)n(S(=O)(=O)c3ccc(C)cc3)c(=O)c3ccc(Cl)cc32)c1 [Example 95, 3-{7-chloro-[3-(4-methylbenzene-sulfonyl)-3-(4-methoxybenzenesulfonyl)-2,4(1H,3H)-quinazolinedion-1-yl]acetylamino}-N-ethylpyridinium iodide] has an IC50 of 210 nM. In the case of N[C@@H](Cc1ccc(NC(=O)Cn2c(=O)n(S(=O)(=O)c3ccc(Cl)cc3)c(=O)c3ccc(Cl)cc32)cc1)C(=O)O [Example 99, [7-chloro-3-(4-chlorobenzenesulfonyl)-2,4(1H,3H)-quinazolinedion-1-yl]-N-(4-L-phenylalaninyl)acetamide], the IC50 is reported as 210 nM. In the case of O=C(Cn1c(=O)n(S(=O)(=O)c2ccc(Cl)cc2)c(=O)c2ccc(Cl)cc21)Nc1ccc(C(=O)O)cc1C(=O)O [Example 101, [7-chloro-3-(4-chlorobenzenesulfonyl)-2,4 (1H,3H)-quinazolinedion-1-yl]-N-(2,4-dicarboxylphenyl)acetamide], the IC50 is reported as 280 nM. Cn1ccc(S(=O)(=O)n2c(=O)c3ccc(Cl)cc3n(CC(=O)Nc3cccnc3)c2=O)c1 [Example 103, [7-chloro-3-(1-methylpyrrole-3-sulfonyl)-2,4(1H,3H)-quinazolinedion-1-yl]-N-(3-pyridyl)acetamide] gave an IC50 of 4600 nM. Compound O=C(Cn1c(=O)n(S(=O)(=O)c2ccc(Cl)cc2)c(=O)c2ccc(Cl)cc21)Nc1cccc(OP(=O)(O)O)c1 [Example 105] has an IC50 of 25 nM. N=C(N)Nc1ccc(Cn2c(=O)n(S(=O)(=O)c3ccc(Cl)cc3)c(=O)c3ccc(Cl)cc32)cc1 [Example 107, 7-chloro-3-(4-chlorobenzenesulfonyl)-1-(4-guanidinobenzyl)-2,4(1H,3H)-quinazolinedione] showed an IC50 of 230 nM. O=C(Cn1c(=O)n(S(=O)(=O)c2ccc(Cl)cc2)c(=O)c2ccc(Cl)cc21)c1ccccc1 [Example 108, 7-chloro-3-(4-chlorobenzenesulfonyl)-1-phenacyl-2,4(1H,3H)-quinazolinedione] gave an IC50 of 1300 nM. For O=c1c2ccc(Cl)cc2n(COCc2ccccc2)c(=O)n1S(=O)(=O)c1ccc(Cl)cc1 [Example 109, 1-(benzyloxymethyl)-7-chloro-3-(4-chlorobenzenesulfonyl)-2,4(1H,3H)-quinazolinedione], the IC50 was 240 nM.

Source: patent publication US5814631A, “Quinazoline derivatives and applications thereof” (Suntory Limited, priority 1995, dated 1998)
